# According to PubChem BioAssay (NCI):
#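 Cells were grown in 96-well plates and exposed to each compound for 48 hours at five concentrations; endpoints were interpolated linearly between bracketing concentrations, or set to the highest concentration if not reached. TGI: concentration producing complete growth inhibition.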
# How the values were obtained:
# Assay in all cases: growth of human tumour cells (NCI), 48 h
# NCI-H460 lung = test system: NCI-H460 lung
# NCI-H226 lung = test system: NCI-H226 lung
# HCT-116 colon = test system: HCT-116 colon
# HCT-15 colon = test system: HCT-15 colon
# EKVX NSCLC = test system: EKVX NSCLC
# SK-MEL-28 melanoma = test system: SK-MEL-28 melanoma
# M14 melanoma = test system: M14 melanoma
# CCRF-CEM leukemia = test system: CCRF-CEM leukemia
# RXF-631 renal = test system: RXF-631 renal
# COLO 205 colon = test system: COLO 205 colon
# SF-295 CNS = test system: SF-295 CNS
# IGROV1 ovarian = test system: IGROV1 ovarian
# SN12C renal = test system: SN12C renal
# OVCAR-8 ovarian = test system: OVCAR-8 ovarian
# SNB-19 CNS = test system: SNB-19 CNS
# LXFL 529 NSCLC = test system: LXFL 529 NSCLC
# ACHN renal = test system: ACHN renal
# HOP-92 NSCLC = test system: HOP-92 NSCLC
# OVCAR-5 ovarian = test system: OVCAR-5 ovarian
# U251 CNS = test system: U251 CNS
# UACC-62 melanoma = test system: UACC-62 melanoma
# A498 renal = test system: A498 renal
# SF-268 CNS = test system: SF-268 CNS
# SF-539 CNS = test system: SF-539 CNS
# SW-620 colon = test system: SW-620 colon
# SR leukemia = test system: SR leukemia
# RPMI-8226 leukemia = test system: RPMI-8226 leukemia
# HCC-2998 colon = test system: HCC-2998 colon
# SK-MEL-5 melanoma = test system: SK-MEL-5 melanoma
# SNB-78 CNS = test system: SNB-78 CNS
# A549 NSCLC = test system: A549 NSCLC
# KM20L2 colon = test system: KM20L2 colon
# SK-MEL-2 melanoma = test system: SK-MEL-2 melanoma
# DLD-1 colon = test system: DLD-1 colon
# DMS 114 small cell lung = test system: DMS 114 small cell lung
# MOLT-4 leukemia = test system: MOLT-4 leukemia
# LOX IMVI melanoma = test system: LOX IMVI melanoma
# HOP-62 NSCLC = test system: HOP-62 NSCLC
# K-562 leukemia = test system: K-562 leukemia
# M19-MEL melanoma = test system: M19-MEL melanoma
# TK-10 renal = test system: TK-10 renal
# SK-OV-3 ovarian = test system: SK-OV-3 ovarian
# HL-60(TB) leukemia = test system: HL-60(TB) leukemia
# CAKI-1 renal = test system: CAKI-1 renal
# XF 498 CNS = test system: XF 498 CNS
# DMS 273 small cell lung = test system: DMS 273 small cell lung
# SNB-75 CNS = test system: SNB-75 CNS
# UACC-257 melanoma = test system: UACC-257 melanoma
# KM12 colon = test system: KM12 colon
# NCI-H23 lung = test system: NCI-H23 lung
# HT29 colon = test system: HT29 colon
# NCI-H522 lung = test system: NCI-H522 lung
# UO-31 renal = test system: UO-31 renal
# RXF 393 renal = test system: RXF 393 renal
# OVCAR-4 ovarian = test system: OVCAR-4 ovarian
# HOP-18 NSCLC = test system: HOP-18 NSCLC
# 786-0 renal = test system: 786-0 renal
# OVCAR-3 ovarian = test system: OVCAR-3 ovarian
# MALME-3M melanoma = test system: MALME-3M melanoma
smiles,measurement,setting,value
COc1ccc(OC)c(NC(=O)C(=O)C(C(=O)c2ccccc2F)C2OC(=O)c3ccccc32)c1 (stereo not drawn),TGI,NCI-H460 lung,> 100 µM
same,TGI,NCI-H226 lung,54.5 µM
same,TGI,HCT-116 colon,> 100 µM
same,TGI,HCT-15 colon,> 100 µM
same,TGI,EKVX NSCLC,> 100 µM
same,TGI,SK-MEL-28 melanoma,> 100 µM
same,TGI,M14 melanoma,> 100 µM
same,TGI,CCRF-CEM leukemia,91.1 µM
same,TGI,RXF-631 renal,> 100 µM
same,TGI,COLO 205 colon,> 100 µM
same,TGI,SF-295 CNS,> 100 µM
same,TGI,IGROV1 ovarian,> 100 µM
same,TGI,SN12C renal,> 100 µM
same,TGI,OVCAR-8 ovarian,> 100 µM
same,TGI,SNB-19 CNS,> 100 µM
same,TGI,LXFL 529 NSCLC,> 100 µM
same,TGI,ACHN renal,> 100 µM
same,TGI,HOP-92 NSCLC,> 100 µM
same,TGI,OVCAR-5 ovarian,> 100 µM
same,TGI,U251 CNS,49.5 µM
same,TGI,UACC-62 melanoma,> 100 µM
same,TGI,A498 renal,> 100 µM
same,TGI,SF-268 CNS,> 100 µM
same,TGI,SF-539 CNS,82.2 µM
same,TGI,SW-620 colon,> 100 µM
same,TGI,SR leukemia,89.1 µM
same,TGI,RPMI-8226 leukemia,> 100 µM
same,TGI,HCC-2998 colon,> 100 µM
same,TGI,SK-MEL-5 melanoma,> 100 µM
same,TGI,SNB-78 CNS,> 100 µM
same,TGI,A549 NSCLC,> 100 µM
same,TGI,KM20L2 colon,> 100 µM
same,TGI,SK-MEL-2 melanoma,> 100 µM
same,TGI,DLD-1 colon,> 100 µM
same,TGI,DMS 114 small cell lung,> 100 µM
same,TGI,MOLT-4 leukemia,> 100 µM
same,TGI,LOX IMVI melanoma,> 100 µM
same,TGI,HOP-62 NSCLC,> 100 µM
same,TGI,K-562 leukemia,> 100 µM
same,TGI,M19-MEL melanoma,> 100 µM
same,TGI,TK-10 renal,> 100 µM
same,TGI,SK-OV-3 ovarian,> 100 µM
same,TGI,HL-60(TB) leukemia,> 100 µM
same,TGI,CAKI-1 renal,> 100 µM
same,TGI,XF 498 CNS,> 100 µM
same,TGI,DMS 273 small cell lung,> 100 µM
same,TGI,SNB-75 CNS,> 100 µM
same,TGI,UACC-257 melanoma,> 100 µM
same,TGI,KM12 colon,> 100 µM
same,TGI,NCI-H23 lung,> 100 µM
same,TGI,HT29 colon,> 100 µM
same,TGI,NCI-H522 lung,71.5 µM
same,TGI,UO-31 renal,> 100 µM
same,TGI,RXF 393 renal,70.7 µM
same,TGI,OVCAR-4 ovarian,> 100 µM
Cc1cc(C)c2c(c1)CN1CN2Cc2cc(C)cc(C)c21,TGI,NCI-H460 lung,29.6 µM
same,TGI,NCI-H226 lung,61.5 µM
same,TGI,HCT-116 colon,37.2 µM
same,TGI,EKVX NSCLC,35.1 µM
same,TGI,SK-MEL-28 melanoma,44.4 µM
same,TGI,M14 melanoma,51.8 µM
same,TGI,CCRF-CEM leukemia,68.2 µM
same,TGI,COLO 205 colon,42.6 µM
same,TGI,SF-295 CNS,37.4 µM
same,TGI,IGROV1 ovarian,> 100 µM
same,TGI,SN12C renal,32.6 µM
same,TGI,OVCAR-8 ovarian,39.5 µM
same,TGI,HOP-18 NSCLC,80.3 µM
same,TGI,LXFL 529 NSCLC,> 100 µM
same,TGI,ACHN renal,35.9 µM
same,TGI,OVCAR-5 ovarian,> 100 µM
same,TGI,U251 CNS,32.3 µM
same,TGI,UACC-62 melanoma,35.9 µM
same,TGI,SF-268 CNS,> 100 µM
same,TGI,SW-620 colon,> 100 µM
same,TGI,SR leukemia,39.3 µM
same,TGI,RPMI-8226 leukemia,52.2 µM
same,TGI,SNB-78 CNS,40.2 µM
same,TGI,A549 NSCLC,> 100 µM
same,TGI,786-0 renal,34.7 µM
same,TGI,DLD-1 colon,58.3 µM
same,TGI,MOLT-4 leukemia,63.1 µM
same,TGI,LOX IMVI melanoma,30.7 µM
same,TGI,HOP-62 NSCLC,53.2 µM
same,TGI,K-562 leukemia,> 100 µM
same,TGI,OVCAR-3 ovarian,28.3 µM
same,TGI,M19-MEL melanoma,53.4 µM
same,TGI,TK-10 renal,37.7 µM
same,TGI,SK-OV-3 ovarian,86.5 µM
same,TGI,HL-60(TB) leukemia,48.8 µM
same,TGI,CAKI-1 renal,> 100 µM
same,TGI,XF 498 CNS,33.4 µM
same,TGI,DMS 273 small cell lung,37.2 µM
same,TGI,SNB-75 CNS,24.8 µM
same,TGI,KM12 colon,37.1 µM
same,TGI,NCI-H23 lung,55.4 µM
same,TGI,HT29 colon,29.9 µM
same,TGI,NCI-H522 lung,53.4 µM
same,TGI,UO-31 renal,43.5 µM
same,TGI,RXF 393 renal,22.4 µM
same,TGI,OVCAR-4 ovarian,50.8 µM
CCC1(Br)C(=O)NC(=O)N(C2CC(O)C(CO)O2)C1N=[N+]=[N-] (stereo not drawn),TGI,NCI-H460 lung,> 100 µM
same,TGI,EKVX NSCLC,> 100 µM
same,TGI,SK-MEL-28 melanoma,> 100 µM
same,TGI,M14 melanoma,> 100 µM
same,TGI,CCRF-CEM leukemia,> 100 µM
same,TGI,COLO 205 colon,> 100 µM
same,TGI,SF-295 CNS,> 100 µM
same,TGI,IGROV1 ovarian,> 100 µM
same,TGI,SN12C renal,> 100 µM
same,TGI,OVCAR-8 ovarian,> 100 µM
same,TGI,SNB-19 CNS,> 100 µM
same,TGI,LXFL 529 NSCLC,> 100 µM
same,TGI,ACHN renal,> 100 µM
same,TGI,HOP-92 NSCLC,> 100 µM
same,TGI,OVCAR-5 ovarian,> 100 µM
same,TGI,U251 CNS,> 100 µM
same,TGI,UACC-62 melanoma,> 100 µM
same,TGI,A498 renal,> 100 µM
same,TGI,SF-268 CNS,> 100 µM
same,TGI,SF-539 CNS,> 100 µM
same,TGI,SW-620 colon,> 100 µM
same,TGI,RPMI-8226 leukemia,> 100 µM
same,TGI,HCC-2998 colon,> 100 µM
same,TGI,SK-MEL-5 melanoma,> 100 µM
same,TGI,SNB-78 CNS,> 100 µM
same,TGI,A549 NSCLC,> 100 µM
same,TGI,KM20L2 colon,> 100 µM
same,TGI,SK-MEL-2 melanoma,> 100 µM
same,TGI,786-0 renal,> 100 µM
same,TGI,DLD-1 colon,> 100 µM
same,TGI,DMS 114 small cell lung,> 100 µM
same,TGI,MALME-3M melanoma,> 100 µM
same,TGI,MOLT-4 leukemia,> 100 µM
same,TGI,LOX IMVI melanoma,> 100 µM
same,TGI,HOP-62 NSCLC,> 100 µM
same,TGI,K-562 leukemia,> 100 µM
same,TGI,OVCAR-3 ovarian,> 100 µM
same,TGI,M19-MEL melanoma,> 100 µM
same,TGI,TK-10 renal,> 100 µM
same,TGI,SK-OV-3 ovarian,> 100 µM
same,TGI,HL-60(TB) leukemia,> 100 µM
same,TGI,CAKI-1 renal,> 100 µM
same,TGI,XF 498 CNS,> 100 µM
same,TGI,DMS 273 small cell lung,> 100 µM
same,TGI,SNB-75 CNS,> 100 µM
same,TGI,UACC-257 melanoma,> 100 µM
same,TGI,NCI-H23 lung,> 100 µM
same,TGI,HT29 colon,> 100 µM
same,TGI,NCI-H522 lung,> 100 µM
same,TGI,UO-31 renal,> 100 µM
same,TGI,RXF 393 renal,> 100 µM
same,TGI,OVCAR-4 ovarian,> 100 µM
Cc1cc([N+](=O)[O-])c(C)c2c1[nH]c1ccc(/C(CCC3CCCC3)=N\N)cc12,TGI,NCI-H460 lung,> 100 µM
same,TGI,NCI-H226 lung,41.5 µM
same,TGI,HCT-116 colon,21.7 µM
same,TGI,HCT-15 colon,29.2 µM
same,TGI,EKVX NSCLC,32 µM
same,TGI,SK-MEL-28 melanoma,34 µM
same,TGI,M14 melanoma,39.5 µM
same,TGI,CCRF-CEM leukemia,44.9 µM
same,TGI,COLO 205 colon,33.1 µM
same,TGI,SF-295 CNS,38.1 µM
same,TGI,SN12C renal,29.7 µM
same,TGI,OVCAR-8 ovarian,75 µM
same,TGI,HOP-18 NSCLC,23.8 µM
same,TGI,SNB-19 CNS,35.7 µM
same,TGI,ACHN renal,28.8 µM
same,TGI,SF-268 CNS,37.5 µM
same,TGI,SF-539 CNS,34.8 µM
same,TGI,SW-620 colon,33.5 µM
same,TGI,SR leukemia,55.9 µM
same,TGI,RPMI-8226 leukemia,62.2 µM
same,TGI,HCC-2998 colon,30.9 µM
same,TGI,SK-MEL-5 melanoma,37.7 µM
same,TGI,SNB-78 CNS,> 100 µM
same,TGI,A549 NSCLC,34.2 µM
same,TGI,SK-MEL-2 melanoma,30.2 µM
same,TGI,786-0 renal,28 µM
same,TGI,DMS 114 small cell lung,35.2 µM
same,TGI,MALME-3M melanoma,32 µM
same,TGI,MOLT-4 leukemia,39 µM
same,TGI,LOX IMVI melanoma,29.6 µM
same,TGI,HOP-62 NSCLC,36.7 µM
same,TGI,K-562 leukemia,55.2 µM
same,TGI,OVCAR-3 ovarian,36.9 µM
same,TGI,M19-MEL melanoma,37.2 µM
same,TGI,TK-10 renal,27.3 µM
same,TGI,XF 498 CNS,28.1 µM
same,TGI,DMS 273 small cell lung,36.3 µM
same,TGI,SNB-75 CNS,46.7 µM
same,TGI,UACC-257 melanoma,42.7 µM
same,TGI,KM12 colon,34.9 µM
same,TGI,NCI-H23 lung,32.7 µM
same,TGI,HT29 colon,> 100 µM
same,TGI,NCI-H522 lung,35 µM
same,TGI,UO-31 renal,30 µM
same,TGI,OVCAR-4 ovarian,53.9 µM
